Results: PubChem BioAssay AID248 (DTP/NCI, 2004)
“And” between values parts separate entries of the source, which are not always exact repeats. Equal values may be shown once. Inconclusive results and toxic doses are left out.

Test system: L1210 leukemia ip in BDF1 mice, survival T/C
Experiment: NCI In Vivo Anticancer Drug Screen. Data for tumor model L1210 Leukemia (intraperitoneal) in B6D2F1 (BDF1) mice
Conditions: endpoint: mean survival time, higher = longer survival
Summary of the method: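 Tumor was transplanted into mice, which were then dosed with test compound or vehicle alone. Survival was recorded for each group, and the treated figure was expressed relative to the control figure.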

[1] = dose: 12.5 mg/kg/injection, schedule: Q04DX003 (ip), vehicle: Klucel (hydroxypropylcellulose) (HPC)
[2] = dose: 25.0 mg/kg/injection, schedule: Q04DX003 (ip), vehicle: Klucel (hydroxypropylcellulose) (HPC)
[3] = dose: 100.0 mg/kg/injection, schedule: Q01DX001 (ip), vehicle: carboxymethylcellulose (CMC)
[4] = dose: 200.0 mg/kg/injection, schedule: Q01DX001 (ip), vehicle: carboxymethylcellulose (CMC)
[5] = dose: 400.0 mg/kg/injection, schedule: Q01DX001 (ip), vehicle: carboxymethylcellulose (CMC)
[6] = dose: 100.0 mg/kg/injection, schedule: Q01DX001 (ip), vehicle: Klucel (hydroxypropylcellulose) (HPC)
[7] = dose: 100.0 mg/kg/injection, schedule: Q04DX003 (ip), vehicle: Klucel (hydroxypropylcellulose) (HPC)
[8] = dose: 200.0 mg/kg/injection, schedule: Q01DX001 (ip), vehicle: Klucel (hydroxypropylcellulose) (HPC)
[9] = dose: 200.0 mg/kg/injection, schedule: Q04DX003 (ip), vehicle: Klucel (hydroxypropylcellulose) (HPC)
[10] = dose: 400.0 mg/kg/injection, schedule: Q04DX003 (ip), vehicle: Klucel (hydroxypropylcellulose) (HPC)
[11] = dose: 100.0 mg/kg/injection, schedule: Q04DX002 (ip), vehicle: Klucel (hydroxypropylcellulose) (HPC)
[12] = dose: 200.0 mg/kg/injection, schedule: Q04DX002 (ip), vehicle: Klucel (hydroxypropylcellulose) (HPC)
[13] = dose: 400.0 mg/kg/injection, schedule: Q04DX002 (ip), vehicle: Klucel (hydroxypropylcellulose) (HPC)
[14] = dose: 100.0 mg/kg/injection, schedule: Q04DX002 (ip), vehicle: saline
[15] = dose: 200.0 mg/kg/injection, schedule: Q04DX002 (ip), vehicle: saline
[16] = dose: 400.0 mg/kg/injection, schedule: Q04DX002 (ip), vehicle: saline
[17] = dose: 100.0 mg/kg/injection, schedule: Q01DX009 (ip), vehicle: Klucel (hydroxypropylcellulose) (HPC)
[18] = dose: 200.0 mg/kg/injection, schedule: Q01DX009 (ip), vehicle: Klucel (hydroxypropylcellulose) (HPC)
[19] = dose: 400.0 mg/kg/injection, schedule: Q01DX009 (ip), vehicle: Klucel (hydroxypropylcellulose) (HPC)
[20] = dose: 100.0 mg/kg/injection, schedule: Q04DX003 (ip), vehicle: saline with Tween-80
[21] = dose: 200.0 mg/kg/injection, schedule: Q04DX003 (ip), vehicle: saline with Tween-80
[22] = dose: 400.0 mg/kg/injection, schedule: Q04DX003 (ip), vehicle: saline with Tween-80

With `Cc1cc2c(cc1C)C(=O)OC2=O` the T/C (dose: 100.0 mg/kg/injection, schedule: Q01DX009 (ip), vehicle: saline with Tween-80) was 102 % of control, the T/C (dose: 200.0 mg/kg/injection, schedule: Q01DX009 (ip), vehicle: saline with Tween-80) was 98 % of control and the T/C (dose: 400.0 mg/kg/injection, schedule: Q01DX009 (ip), vehicle: saline with Tween-80) was 100 % of control.

For `CCCCCCCCCCSS(=O)(=O)O`, the T/C (dose: 100.0 mg/kg/injection, schedule: Q01DX001 (ip), vehicle: other) was 98 % of control and the T/C (dose: 400.0 mg/kg/injection, schedule: Q01DX001 (ip), vehicle: other) was 86 % of control.

For `CSC(C)(S(C)(=O)=O)S(C)(=O)=O`, the T/C (dose: 75.0 mg/kg/injection, schedule: Q01DX001 (ip), vehicle: saline with Tween-80) was 102 % of control, the T/C (dose: 150.0 mg/kg/injection, schedule: Q01DX001 (ip), vehicle: saline with Tween-80) was 96 % of control and the T/C (dose: 300.0 mg/kg/injection, schedule: Q01DX001 (ip), vehicle: saline with Tween-80) was 98 % of control.

`CC(C)(C)C1COP(=O)(C(C)(C)C)OC1` (stereo not given) was tested, and the T/C [1] was 94 % of control and the T/C [2] was 96 % of control.

With `N#CCC(=O)N/N=C\c1ccc2c(c1)OCO2` the T/C [3] was 97 % of control, the T/C [4] was 94 % of control and the T/C [5] was 97 % of control.

In the case of `Cc1cc(NC(=O)NC/C=C/Br)c2ccccc2n1`, the T/C [6] is reported as 97 % of control, the T/C [7] is reported as 98 % of control and the T/C [8] is reported as 108 % of control. For the same molecule, the T/C [9] was 93 % of control, the T/C (dose: 400.0 mg/kg/injection, schedule: Q01DX001 (ip), vehicle: Klucel (hydroxypropylcellulose) (HPC)) was 97 % of control and the T/C [10] was 101 % of control.

For `O=C1CN(CCN2CC(=O)N(Cc3ccccc3)C2=S)C(=S)N1Cc1ccccc1`, the T/C [11] was 88 % of control, the T/C [12] was 88 % of control and the T/C [13] was 92 % of control.

`O=C(C[n+]1ccccc1Br)c1cccc([N+](=O)[O-])c1` was tested, and the T/C (dose: 75.0 mg/kg/injection, schedule: Q01DX001 (ip), vehicle: other) was 100 % of control and the T/C (dose: 150.0 mg/kg/injection, schedule: Q01DX001 (ip), vehicle: other) was 108 % of control.

With `Cc1c([N+](=O)[O-])cc(C(C)(C)C)c(OC(=O)C(C)(C)C)c1[N+](=O)[O-]` the T/C (dose: 25.0 mg/kg/injection, schedule: Q04DX002 (ip), vehicle: Klucel (hydroxypropylcellulose) (HPC)) was 95 % of control, the T/C (dose: 50.0 mg/kg/injection, schedule: Q04DX002 (ip), vehicle: Klucel (hydroxypropylcellulose) (HPC)) was 100 % of control and the T/C [11] was 92 % of control.

With `CCCC(=O)N1C(C)CCCC1C` (stereo not given) the T/C [14] was 117 % of control, the T/C [15] was 101 % of control and the T/C [16] was 93 % of control.

For `CC(C)C1C(C)N1C(C)C` (stereo not given), the T/C (dose: 25.0 mg/kg/injection, schedule: Q01DX009 (ip), vehicle: Klucel (hydroxypropylcellulose) (HPC)) was 107 % of control, the T/C (dose: 50.0 mg/kg/injection, schedule: Q01DX009 (ip), vehicle: Klucel (hydroxypropylcellulose) (HPC)) was 100 % of control and the T/C [17] was 104 % of control. For the same molecule, the T/C [7] was 95 % of control.

With `COc1ccc(OC)c(NC(=O)N(C)CCC#N)c1` the T/C [17] was 106 % of control, the T/C [18] was 101 % of control and the T/C [19] was 106 % of control.

For `CN(C)c1ccc(/C=N/NC(=O)C(O)C(O)C(O)C(O)CO)cc1` (stereo not given), the T/C [17] was 97 % of control, the T/C [18] was 96 % of control and the T/C [19] was 102 % of control.

`N#Cc1ccccc1N=NNc1ccc([N+](=O)[O-])cc1` was tested, and the T/C (dose: 75.0 mg/kg/injection, schedule: Q01DX001 (ip), vehicle: saline) was 108 % of control, the T/C (dose: 150.0 mg/kg/injection, schedule: Q01DX001 (ip), vehicle: saline) was 104 % of control and the T/C (dose: 300.0 mg/kg/injection, schedule: Q01DX001 (ip), vehicle: saline) was 98 % of control.

`CC(C)(C)c1cc(C(C)(C)C)nc(C(C)(C)C)c1` was tested, and the T/C [6] was 98 % of control and the T/C [8] was 98 % of control.

With `CCOC(=O)c1cnc(SC)nc1Nc1cccc(Cl)c1Cl` the T/C [7] was 100 % of control, the T/C [9] was 95 % of control and the T/C [10] was 94 % of control.

In the case of `O=[N+]([O-])c1ccc([N+](=O)[O-])c2nsnc12`, the T/C [1] is reported as 98 % of control and the T/C [2] is reported as 102 % of control.

`CSc1nc(N)nc2ncc(CN(C)c3ccc(C(=O)O)cc3)nc12` was tested, and the T/C (dose: 8.0 mg/kg/injection, schedule: Q01DX009 (ip), vehicle: DMSO) was 100 % of control, the T/C (dose: 12.0 mg/kg/injection, schedule: Q01DX009 (ip), vehicle: DMSO) was 98 % of control and the T/C (dose: 18.0 mg/kg/injection, schedule: Q01DX009 (ip), vehicle: DMSO) was 100 % of control. For the same molecule, the T/C (dose: 25.0 mg/kg/injection, schedule: Q01DX009 (ip), vehicle: DMSO) was 88 % of control and the T/C (dose: 50.0 mg/kg/injection, schedule: Q01DX001 (ip), vehicle: DMSO) was 91 % of control.

For `OC1c2ccccc2C(O)C2C3C=CC(CC3)C12` (stereo not given), the T/C (dose: 50.0 mg/kg/injection, schedule: Q01DX001 (ip), vehicle: carboxymethylcellulose (CMC)) was 93 % of control, the T/C [3] was 98 % of control and the T/C [4] was 98 % of control. The T/C [5] was 98 % of control.

For `CCOC(=O)/C=C/c1nc(N)[nH]c(=O)c1CCCCc1ccccc1`, the T/C (dose: 50.0 mg/kg/injection, schedule: Q01DX001 (ip), vehicle: Klucel (hydroxypropylcellulose) (HPC)) was 122 % of control, the T/C [6] was 119 % of control and the T/C [8] was 111 % of control.

For `C/C(=C\c1ccc(O)cc1)[N+](=O)[O-]`, the T/C (dose: 50.0 mg/kg/injection, schedule: Q01DX009 (ip), vehicle: alcohol) was 104 % of control, the T/C (dose: 100.0 mg/kg/injection, schedule: Q01DX009 (ip), vehicle: alcohol) was 105 % of control and the T/C (dose: 100.0 mg/kg/injection, schedule: Q04DX003 (ip), vehicle: acetone) was 96 % of control. For the same molecule, the T/C (dose: 200.0 mg/kg/injection, schedule: Q01DX009 (ip), vehicle: alcohol) was 91 % of control and the T/C (dose: 200.0 mg/kg/injection, schedule: Q04DX003 (ip), vehicle: acetone) was 105 % of control.

`CN(C)CC(=O)CC12CC3CC(CC(C3)C1)C2` was tested, and the T/C [14] was 94 % of control, the T/C [15] was 100 % of control and the T/C [16] was 89 % of control.

For `CCOC(=O)C(C(C)=O)C(c1ccccc1)C(C(C)=O)C(=O)OCC` (stereo not given), the T/C (dose: 25.6 mg/kg/injection, schedule: Q04DX002 (ip), vehicle: saline with Tween-80) was 97 % of control, the T/C (dose: 64.0 mg/kg/injection, schedule: Q04DX002 (ip), vehicle: saline with Tween-80) was 104 % of control and the T/C [20] was 101 % of control. For the same molecule, the T/C (dose: 160.0 mg/kg/injection, schedule: Q04DX002 (ip), vehicle: saline with Tween-80) was 112 % of control, the T/C [21] was 98 % of control and the T/C (dose: 400.0 mg/kg/injection, schedule: Q04DX002 (ip), vehicle: saline with Tween-80) was 104 % of control. For the same molecule, the T/C [22] was 93 % of control.

`CC1(COCCOCC2(C)CO2)CO1` (stereo not given) was tested, and the T/C (dose: 100.0 mg/kg/injection, schedule: Q04DX003 (ip), vehicle: saline) was 97 % of control, the T/C (dose: 180.0 mg/kg/injection, schedule: Q01DX009 (ip), vehicle: saline) was 106 % of control and 108 % of control and the T/C (dose: 200.0 mg/kg/injection, schedule: Q04DX003 (ip), vehicle: saline) was 103 % of control. For the same molecule, the T/C (dose: 266.0 mg/kg/injection, schedule: Q01DX009 (ip), vehicle: saline) was 112 % of control and the T/C (dose: 400.0 mg/kg/injection, schedule: Q01DX009 (ip), vehicle: saline) was 150 % of control.

`Cc1ccccc1NC(=O)Oc1ccccc1-c1ccccc1` was tested, and the T/C [11] was 103 % of control, the T/C [12] was 118 % of control and the T/C [13] was 118 % of control.

In the case of `CC1(C(=O)O)CC1(C)C(=O)O` (stereo not given), the T/C [20] is reported as 103 % of control, the T/C [21] is reported as 96 % of control and the T/C [22] is reported as 92 % of control.

For `Oc1c(Br)cc(Br)cc1/C=N/N1CCN(/N=C/c2cc(Br)cc(Br)c2O)CC1`, the T/C (dose: 100.0 mg/kg/injection, schedule: Q01DX001 (ip), vehicle: saline) was 87 % of control and the T/C (dose: 400.0 mg/kg/injection, schedule: Q01DX001 (ip), vehicle: saline) was 90 % of control.
